Assay results reported in US10611771B2, “Pyrazolo [3,4-d] pyrimidine derivative” (WEST CHINA HOSPITAL, SICHUAN UNIVERSITY, priority 2016, dated 2020).
Where “and” joins values, the source holds several entries; their conditions need not be identical. Equal values may be shown once.

Test system: A549 cells
Assay: MTT detection method, inhibitory effect against A549 cells
Type: cell-based
From the text: MTT detection method was used, and MTT is a yellow compound and a dye accepting hydrogen ions, and can be used as the respiratory chain in mitochondria of viable cells. Under the action of succinate dehydrogenase and cytochrome C, the tetrazolium ring broke to form blue formanzan crystal, and the formation amount of formanzan crystal was only directly proportional to the viable counts. The formanzan crystal formed by reduction can dissolve in dimethyl sulfoxide (DMSO), and the optical density (OD) value can be determined at 490 nm using ELISA, to reflect the viable counts.
• Lung cancer cell lines: A549 and H1299. • Experimental materials: lung cancer cell lines, instruments and tools for cell culture, MTT, the compound mother liquid (10 mmol/L), and the positive control drug Src inhibitor pp1. 1. Specific Method • (3-1) Cell lines A549 and H1299 were recovered, and when the cells were in good conditions, namely cells grew to about 80% after one passage (i.e. the logarithmic growth phase), the cells were planked (96-well plate). • (3-2) Firstly, cells were collected, and the concentration of cell suspension was adjusted with counting chamber. Cells were seeded in 96-well plate at 1000˜10000 cells/well, and the detailed cell numbers in each well were dependent on the growth rate of different cells and the action time of drugs. A549 cells were seeded at 5000 cells, while H1299 cells were also seeded at 5000 cells, 200 μl for each well (100 μl cell suspension+100 μl drug dilution at different concentration gradient). The edge wells (36) were added 200 μl culture media (for prevention of edge effect). • (3-3) After planking and adding drugs, the plate was treated at 24 h, 48 h, and 72 h, and then for coloration, each well was added 200 μl culture media containing 20 μl MTT solution (5 mg/mL). The plate was continually cultured for 1˜4 hours, the incubation was stopped, and the culture supernatant fluid in each well was carefully absorbed. For suspension cells, the culture supernatant fluid in each well need be centrifuged before drawing. 150 μl DMSO was added to each well, and the plate was shaken on a shaking table for 15˜20 min, to allow the crystals to be completely dissolved. • (3-4) Colorimetry: The colorimetry was performed by ELISA, and the optical absorption value of each well was tested at a wavelength of 490 nm or 570 nm, and the result was recorded. • (3-5) Calculation Inhibition ratio=(the control−the drug)/the control×100% • IC50 (50% inhibitory concentration) can be calculated by spass software based on the inhibitory ratio at different concentration. II. Experimental Results • A549 cells were treated at 4 h, 24 h, 48 h, 72 h, and the drug dose was divided into the light concentration group (10 μm, 25 μm, 40 μm) and the high concentration group (50 μm, 80 μm, 100 μm), that were seeded at 6000 cells/well and 5000 cells/well, respectively, to carry out the experiment.

## Cc1ccc(-c2nn(C(C)(C)C)c3ncnc(N)c23)cc1 [PP1, reference compound]
4 h, 10 μm
  The inhibitory ratio (%) for three parallel assays: 14.06% and 5.63% and 10.31%
  The mean inhibitory ratio (%): 10.00%
4 h, 25 μm
  The mean inhibitory ratio (%): 8.44%
4 h, 40 μm
  The inhibitory ratio (%) for three parallel assays: 31.88% and 35.00% and 23.44%
  The mean inhibitory ratio (%): 30.10%
4 h, 50 μm
  The inhibitory ratio (%) for three parallel assays: 26.86% and 23.43% and 24.00%
  The mean inhibitory ratio (%): 24.76%
4 h, 80 μm
  The inhibitory ratio (%) for three parallel assays: 32.86% and 31.43% and 30.00%
  The mean inhibitory ratio (%): 31.43%
4 h, 100 μm
  The inhibitory ratio (%) for three parallel assays: 44.00% and 43.43%
  The mean inhibitory ratio (%): 43.81%
24 h, 10 μm
  The inhibitory ratio (%) for three parallel assays: 14.13% and 14.78% and 11.09%
  The mean inhibitory ratio (%): 13.33%
24 h, 25 μm
  The inhibitory ratio (%) for three parallel assays: 49.35% and 47.39% and 48.04%
  The mean inhibitory ratio (%): 48.26%
24 h, 40 μm
  The inhibitory ratio (%) for three parallel assays: 63.91% and 64.13% and 64.35%
  The mean inhibitory ratio (%): 64.13%
24 h, 50 μm
  The inhibitory ratio (%) for three parallel assays: 56.46% and 55.83% and 56.04%
  The mean inhibitory ratio (%): 56.11%
24 h, 80 μm
  The inhibitory ratio (%) for three parallel assays: 74.79% and 72.92% and 73.54%
  The mean inhibitory ratio (%): 73.75%
24 h, 100 μm
  The inhibitory ratio (%) for three parallel assays: 80.63% and 79.58% and 79.17%
  The mean inhibitory ratio (%): 79.79%
48 h, 10 μm
  The inhibitory ratio (%) for three parallel assays: 48.91% and 48.44% and 45.94%
  The mean inhibitory ratio (%): 47.76%
48 h, 25 μm
  The inhibitory ratio (%) for three parallel assays: 66.88% and 67.03% and 66.72%
  The mean inhibitory ratio (%): 66.88%
48 h, 40 μm
  The inhibitory ratio (%) for three parallel assays: 74.53% and 74.22%
  The mean inhibitory ratio (%): 74.43%
48 h, 50 μm
  The inhibitory ratio (%) for three parallel assays: 69.50% and 67.00% and 66.67%
  The mean inhibitory ratio (%): 67.72%
48 h, 80 μm
  The inhibitory ratio (%) for three parallel assays: 81.17% and 80.00% and 80.17%
  The mean inhibitory ratio (%): 80.44%
48 h, 100 μm
  The inhibitory ratio (%) for three parallel assays: 82.50% and 81.33% and 82.33%
  The mean inhibitory ratio (%): 82.06%
72 h, 10 μm
  The inhibitory ratio (%) for three parallel assays: 63.42% and 63.87% and 64.59%
  The mean inhibitory ratio (%): 63.96%
72 h, 25 μm
  The inhibitory ratio (%) for three parallel assays: 83.06% and 82.97% and 83.69%
  The mean inhibitory ratio (%): 83.24%
72 h, 40 μm
  The inhibitory ratio (%) for three parallel assays: 86.76% and 86.13% and 87.66%
  The mean inhibitory ratio (%): 86.85%
72 h, 50 μm
  The inhibitory ratio (%) for three parallel assays: 82.70% and 81.35% and 82.43%
  The mean inhibitory ratio (%): 82.16%
72 h, 80 μm
  The inhibitory ratio (%) for three parallel assays: 85.95% and 86.22% and 86.08%
  The mean inhibitory ratio (%): 86.08%
72 h, 100 μm
  The inhibitory ratio (%) for three parallel assays: 85.41% and 85.68%
  The mean inhibitory ratio (%): 85.59%
